According to US20250352615A1, “COMPOSITIONS AND METHODS FOR THE MODULATION OF PIEZO1 AND TRPV4” (Duke University, priority 2021, published 2025):

What was measured:
TRPV4 = biological target: T1, TRPV4 (Mus musculus, UniProt Q9EPK8); assay: Calcium imaging of TRPV4-mediated [Ca2+]i in pancreatic acini (agonists, shear stress, Yoda1 sustained phase); assay type: cell-based; settings: for agonist effect on [Ca2+]i: GSK101 50 nM, arachidonic acid 20 μM, 5′,6′-EET 5 μM
T1 construct: endogenous in cells; host or cells: freshly isolated mouse pancreatic acini (C57BL/6J WT)
Experimental: (§1) Mouse pancreatic acini were isolated using a standard collagenase digestion protocol. Isolated acini were plated on a thin-layered, Matrigel-coated, glass-bottom, culture plate (MatTek, P35G-0-14-C). Freshly isolated acini were used in each experiment.
Parallel-plate fluid flow chambers (μ-Slide I 0.4 Luer, and μ-Slide I 0.2 Luer from Ibidi GmbH) were used to measure the shear stress-induced changes in intracellular calcium, mitochondrial depolarization, and trypsin activation. The constant flow rate with shear stress (T) was determined as follows: τ=η×[…] φ for μ-Slide I 0.4 Luer and τ=η×330.4 φ for μ-Slide I 0.2 Luer, where η=viscosity of the medium and φ=flow rate (according to the manufacturer's instructions, Ibidi).
(§2) Calcium imaging in pancreatic acini was performed as previously described. The chemicals used in calcium imaging experiments included the following: Yoda1 (Tocris; 5586), GsMTx4 (Abcam; ab141871), 5′,6′-EET (Santa Cruz Biotechnology; sc-221066), AA (Millipore Sigma; A3611), HC067047 (Tocris; 4100), GSK1016790A (Millipore Sigma; G0798), RN1734 (Tocris; 3746), AACOCF3 (Tocris; 1462), YM26734 (Tocris; 2522), GF109203X (Tocris; 0741), and CCK8 (Sigma-Aldrich).

Piezo1 [1] = biological target: T2, Piezo1 (Mus musculus, UniProt E2JF22); assay: Calcium imaging of Piezo1-mediated [Ca2+]i in mouse PSCs; assay type: cell-based; settings: for effect on Yoda1-mediated sustained [Ca2+]i elevation, YM26734 and AACOCF3 together: YM26734 10 μM + AACOCF3 30 μM, Yoda1 25 μM, PSCs from WT mice
T2 construct: endogenous in cells; host or cells: freshly isolated mouse pancreatic acini (WT = Piezo1 fl/fl on a C57BL/6J background)
Experimental: Mouse and human PSCs were isolated using collagenase digestion. Modified Krebs Henseleit Buffer (KHB) solution (100 mL) was prepared as previously described by Romac et al., Nat. Commun. 9(1):1715 (2018). Pancreatic tissue was digested with 2 mg of collagenase NB 8 (SERVA, catalog 17456) dissolved in 10 mL of modified KHB solution containing 1 mg soybean trypsin inhibitor (SBTI 1-S; Millipore Sigma, catalog T9003) and 20 mg BSA (Thermo Fisher Scientific; BP1600-100). Digestion solution (5 mL) was used to inflate the pancreas. Pancreas with 5 mL of digestion solution was incubated in a shaking water bath for 10 minutes at 37° C. The solution was then discarded. The pancreas tissue was cut into small pieces and digested with fresh 5 mL digestion buffer. Tissue was incubated in a shaking water bath for 40 minutes at 37° C. The cells were then separated from tissue by pipetting up-down with a 10 mL pipette and passed sequentially through a 70 μm and a 40 μm cell strainer. The filtrate was centrifuged at 150×g for 3 minutes at room temperature. The cells were washed with 10 mL Leibovitz's media (Thermo Fisher Scientific, catalog 11415-064), passed through a 20 μm filter, and centrifuged at 80×g for 3 minutes at room temperature. The supernate was removed, and isolated stellate cells were plated on a thin-layered Matrigel-coated glass bottom culture plate (MatTek, P35G-0-14-C). Before plating the cells, Matrigel solution (Corning, catalog 354234) at a ratio of 1.5:100 DMEM/F12 (Thermo Fisher Scientific, catalog 11330-032) was poured onto the culture plate and incubated for 2 hr at 37° C. to form a thin layer of Matrigel coating. Matrigel mixture was removed, and the plate was washed with PBS before cells were plated. Cell culture media, DMEM/F12 with 5% FBS was used for mouse stellate cells. Fresh, human pancreatic tissue was digested with collagenase as described above with modifications. Collagenase (2.5 mg) in 10 mL of modified KHB solution was used for digestion. The digested tissues were filtered through a 100 μm cell strainer. The cells were cultured with DMEM/F12 with 10% FBS in a Matrigel-coated plate. After 24 hr, the cell media was replaced with fresh media to remove unattached and dead cells. After 2 days, cells were immunostained for GFAP and used for experiments. Perinuclear fat droplets were stained with BODIPY 493/503 (4,4-Difluoro-1,3,5,7,8-Pentamethyl-4-Bora-3a,4a-Diaza-s-Indacene; Invitrogen, catalog D3922) to confirm stellate cell quiescence. The cell viability following Yoda1 treatment was analyzed using the Live/Dead cell imaging kit (Thermo Fisher Scientific, catalog R37601). RNAs were isolated using the RiboPure Kit (Invitrogen, catalog AM1924) according to manufacturer's instructions.
Fluid shear stress and mechanical pushing applied to stellate cells were achieved as previously described by Wang et al., J. Clin. Invest. 126(12): 4527-4536 (2016). Parallel-plate fluid flow chambers (μ-Slide I 0.4 Luer, or μ-Slide I 0.2 Luer from Ibidi) were used for fluid shear stress experiments. The fluid shear stress (T) was calculated using the formula: τ=η×[…] φ for μ-Slide I 0.4 Luer and τ=η×330.4 φ for μ-Slide I 0.2 Luer, where r represents viscosity of the medium and φ represents flow rate (according to the manufacturer's instructions, Ibidi). Mechanical pushing was achieved by applying a blunt borosilicate glass pipette once to the cell membrane with a deflection of 2-3 μm for 1 second using a micromanipulator (World Precision Instruments).
Calcium 6-QF (Molecular Devices) dye was used for live-cell calcium imaging as described by Romac et al., Nat. Commun. 9(1):1715 (2018). Cells were imaged in HBSS buffer with 2 mM Ca^2+. Faintly and highly fluorescent loaded cells were excluded from analysis. […]

Piezo1 [2] = biological target: T2, Piezo1; assay: Calcium imaging of Yoda1 (Piezo1)-mediated [Ca2+]i in pancreatic acini; assay type: cell-based; settings: for effect on Yoda1-induced sustained [Ca2+]i elevation, YM26734 and AACOCF3 together: YM26734 10 μM + AACOCF3 30 μM, preincubated 10 minutes; for effect of protein kinase A and C blockers on Yoda1-induced sustained calcium elevation: KT5720 5 μM, GF109203X 20 μM
Experimental: as §1, §2

pancreatic acini [3] = assay: CCK-induced [Ca2+]i in pancreatic acini; assay type: cell-based, mouse; parameters: effect on CCK-induced sustained [Ca2+]i elevation: dose or concentration left out as unconfirmed
Experimental: as §1, §2

pancreatic acini [4] = assay: Mitochondrial depolarization in pancreatic acini (TMRE); assay type: cell-based, mouse
Experimental: Live-cell mitochondrial depolarization was analyzed using the mitochondrial labeling dye, TMRE. Isolated acini were plated on a thin-layered, Matrigel-coated, glass-bottom culture plate with DMEM/F12 and 10% FBS media and placed in a CO2 incubator for 1 hr at 37° C. After 1 hr, the acini were incubated with TMRE (200 nM) in the bath buffer containing 140 mM NaCl, 4.7 mM KCl, 2.0 CaCl2, 1 mM MgCl2, 10 mM HEPES, and 10 mM glucose (pH adjusted to 7.4 with NaOH) for 30 minutes. The TMRE dye was washed and replaced with fresh bath buffer. The images were captured with a Zeiss Axio observer Z1 microscope with MetaMorph software (Molecular Devices) at intervals of 600 ms. TMRE was excited at 540-600 nm and emission collected at 585-675 nm. Carbonyl cyanide 4-(trifluoromethoxy) phenylhydrazone (FCCP), which uncouples the oxidative phosphorylation process and depolarizes mitochondria, was used as a positive control. A maximum of 2 mitochondrial puncta were taken per acinar cell.

pancreatic acini [5] = assay: Cell death assays of pancreatic acini (LDH release, Live/Dead, live-cell imaging); assay type: cell-based
Experimental: The viability of pancreatic acini with Yoda1 and CCK treatments was analyzed using the Live/Dead Cell Imaging Kit (Thermo Fisher Scientific, catalog R37601) or the LDH Release Assay Kit (Promega, catalog G1780).

pancreatic acini [6] = assay: Trypsinogen activation in pancreatic acini (BZiPAR); assay type: cell-based, mouse
Experimental: To visualize Piezo1-induced trypsinogen activation, acini were loaded with active trypsin enzyme substrate BZiPAR (10 μM). Na-HEPES buffer with 2 mM Ca^2+ was used during imaging. A Zeiss Axio observer Z1 with a high-sensitivity EMCCD camera with a ×40/0.75 EC-Plan-NeoFluar DIC objective was used to capture the Z-stack images with stack thickness of 3 μm at an interval of 12 seconds. The BZiPAR fluorescent wavelength Ex/Em was 498/521 nm. BZiPAR was excited at 470-510 nm and emission collected at 495-550 nm. The captured images were analyzed with MetaMorph software (Molecular Devices).

T1 sequence (Q9EPK8 whole entry): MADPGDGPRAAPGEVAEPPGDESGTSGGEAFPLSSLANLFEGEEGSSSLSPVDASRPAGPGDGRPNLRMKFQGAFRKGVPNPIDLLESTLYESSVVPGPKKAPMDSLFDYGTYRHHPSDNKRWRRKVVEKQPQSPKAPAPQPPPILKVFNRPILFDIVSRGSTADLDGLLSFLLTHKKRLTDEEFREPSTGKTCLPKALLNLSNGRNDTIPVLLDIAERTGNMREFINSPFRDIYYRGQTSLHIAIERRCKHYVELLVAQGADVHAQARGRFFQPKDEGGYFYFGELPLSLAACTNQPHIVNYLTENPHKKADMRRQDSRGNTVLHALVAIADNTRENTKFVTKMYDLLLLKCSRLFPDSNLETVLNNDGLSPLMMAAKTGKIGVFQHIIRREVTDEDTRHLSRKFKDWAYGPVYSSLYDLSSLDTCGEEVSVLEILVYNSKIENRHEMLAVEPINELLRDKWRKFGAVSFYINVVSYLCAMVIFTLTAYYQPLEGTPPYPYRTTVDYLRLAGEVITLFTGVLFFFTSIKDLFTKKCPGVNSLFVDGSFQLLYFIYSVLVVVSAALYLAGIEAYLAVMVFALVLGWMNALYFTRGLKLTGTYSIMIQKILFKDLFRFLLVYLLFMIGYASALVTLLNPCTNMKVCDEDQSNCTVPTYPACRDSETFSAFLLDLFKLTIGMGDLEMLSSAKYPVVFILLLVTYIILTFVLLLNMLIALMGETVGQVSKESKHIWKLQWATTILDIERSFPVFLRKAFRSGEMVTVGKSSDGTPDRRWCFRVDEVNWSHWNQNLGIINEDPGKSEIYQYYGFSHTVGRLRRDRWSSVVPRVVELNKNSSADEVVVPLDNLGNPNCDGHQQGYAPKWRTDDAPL
T2 sequence (E2JF22 whole entry): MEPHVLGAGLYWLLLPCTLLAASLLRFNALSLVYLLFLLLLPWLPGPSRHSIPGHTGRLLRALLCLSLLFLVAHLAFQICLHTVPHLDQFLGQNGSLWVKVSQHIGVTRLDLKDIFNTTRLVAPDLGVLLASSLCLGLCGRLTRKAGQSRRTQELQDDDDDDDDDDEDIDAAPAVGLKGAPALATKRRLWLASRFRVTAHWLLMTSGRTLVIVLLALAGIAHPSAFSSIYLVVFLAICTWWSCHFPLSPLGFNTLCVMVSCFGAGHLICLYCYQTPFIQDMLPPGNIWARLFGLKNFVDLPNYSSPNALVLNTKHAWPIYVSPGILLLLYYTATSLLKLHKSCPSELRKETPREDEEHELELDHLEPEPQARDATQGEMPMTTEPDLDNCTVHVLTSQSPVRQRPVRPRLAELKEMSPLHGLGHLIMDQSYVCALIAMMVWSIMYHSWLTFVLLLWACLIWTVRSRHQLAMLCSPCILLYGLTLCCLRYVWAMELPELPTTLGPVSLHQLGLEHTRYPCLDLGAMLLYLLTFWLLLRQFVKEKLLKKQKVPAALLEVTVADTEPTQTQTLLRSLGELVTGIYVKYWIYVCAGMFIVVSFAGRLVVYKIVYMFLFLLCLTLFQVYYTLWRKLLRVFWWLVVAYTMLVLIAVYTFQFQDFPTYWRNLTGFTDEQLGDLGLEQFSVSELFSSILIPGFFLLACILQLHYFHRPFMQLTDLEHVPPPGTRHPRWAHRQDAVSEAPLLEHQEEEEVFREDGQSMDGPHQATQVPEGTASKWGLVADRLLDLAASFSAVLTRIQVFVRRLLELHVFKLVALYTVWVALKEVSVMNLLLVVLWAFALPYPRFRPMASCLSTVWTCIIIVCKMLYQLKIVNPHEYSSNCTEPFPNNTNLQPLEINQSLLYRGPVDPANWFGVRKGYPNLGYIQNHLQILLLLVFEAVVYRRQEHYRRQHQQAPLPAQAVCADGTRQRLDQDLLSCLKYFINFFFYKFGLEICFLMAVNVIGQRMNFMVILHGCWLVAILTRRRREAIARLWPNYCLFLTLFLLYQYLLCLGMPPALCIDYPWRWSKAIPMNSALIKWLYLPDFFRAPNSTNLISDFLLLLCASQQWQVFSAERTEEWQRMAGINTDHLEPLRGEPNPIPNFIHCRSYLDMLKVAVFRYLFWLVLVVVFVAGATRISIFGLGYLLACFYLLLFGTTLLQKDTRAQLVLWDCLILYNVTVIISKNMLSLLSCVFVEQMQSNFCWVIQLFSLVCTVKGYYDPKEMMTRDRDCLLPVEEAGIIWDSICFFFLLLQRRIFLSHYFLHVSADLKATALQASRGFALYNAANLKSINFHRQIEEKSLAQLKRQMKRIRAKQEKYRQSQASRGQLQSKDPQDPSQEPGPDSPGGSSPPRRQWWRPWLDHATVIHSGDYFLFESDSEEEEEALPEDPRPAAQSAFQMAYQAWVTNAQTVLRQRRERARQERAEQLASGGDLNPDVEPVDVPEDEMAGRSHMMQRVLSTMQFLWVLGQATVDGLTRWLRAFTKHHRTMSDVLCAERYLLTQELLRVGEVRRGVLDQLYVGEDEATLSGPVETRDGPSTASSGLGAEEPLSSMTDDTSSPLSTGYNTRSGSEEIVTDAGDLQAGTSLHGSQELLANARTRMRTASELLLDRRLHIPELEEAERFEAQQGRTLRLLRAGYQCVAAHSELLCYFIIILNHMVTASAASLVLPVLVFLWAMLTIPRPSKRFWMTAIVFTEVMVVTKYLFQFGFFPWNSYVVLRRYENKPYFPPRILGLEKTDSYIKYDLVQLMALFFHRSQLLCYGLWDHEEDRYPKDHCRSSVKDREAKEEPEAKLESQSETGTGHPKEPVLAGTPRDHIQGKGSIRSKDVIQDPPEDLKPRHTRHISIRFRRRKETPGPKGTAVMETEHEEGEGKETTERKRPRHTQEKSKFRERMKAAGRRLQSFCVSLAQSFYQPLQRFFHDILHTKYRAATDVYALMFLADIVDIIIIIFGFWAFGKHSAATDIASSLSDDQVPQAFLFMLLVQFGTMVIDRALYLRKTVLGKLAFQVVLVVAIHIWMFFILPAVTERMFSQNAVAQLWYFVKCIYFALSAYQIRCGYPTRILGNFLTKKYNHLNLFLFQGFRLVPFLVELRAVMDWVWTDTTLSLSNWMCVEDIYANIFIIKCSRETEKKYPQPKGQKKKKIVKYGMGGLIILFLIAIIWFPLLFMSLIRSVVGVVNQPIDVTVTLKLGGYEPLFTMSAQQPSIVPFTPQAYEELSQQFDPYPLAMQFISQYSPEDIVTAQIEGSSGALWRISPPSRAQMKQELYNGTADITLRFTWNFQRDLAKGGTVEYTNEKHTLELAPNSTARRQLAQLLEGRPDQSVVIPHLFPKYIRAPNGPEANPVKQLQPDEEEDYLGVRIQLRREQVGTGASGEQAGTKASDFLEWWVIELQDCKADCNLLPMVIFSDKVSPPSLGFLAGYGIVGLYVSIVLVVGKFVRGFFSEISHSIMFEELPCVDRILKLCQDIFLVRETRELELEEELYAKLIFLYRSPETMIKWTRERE

## CCCCC/C=C\C/C=C\C/C=C\CC1OC1CCCC(=O)O (stereo not drawn) [5′,6′-EET, 5′,6′-epoxyeicosatrienoic acid]
TRPV4
  agonist effect on [Ca2+]i: induced significant increases in [Ca^2+]i

## CCCCC/C=C\C/C=C\C/C=C\C/C=C\CCCC(=O)O [AA, arachidonic acid]
TRPV4
  agonist effect on [Ca2+]i: induced significant increases in [Ca^2+]i

## CCCCC/C=C\C/C=C\C/C=C\C/C=C\CCCC(=O)C(F)(F)F [AACOCF3]
Piezo1 [1]
  effect on Yoda1-mediated sustained [Ca2+]i elevation, YM26734 and AACOCF3 together: significantly inhibited the Yoda1-mediated sustained elevation in [Ca^2+]i
Piezo1 [2]; Yoda1 25 μM
  effect on Yoda1-induced sustained [Ca2+]i elevation, YM26734 and AACOCF3 together: blocked the Yoda1-induced sustained [Ca^2+]i elevation

## CC(=O)OCOC(=O)CN(CC(=O)OCOC(C)=O)c1ccccc1OCCOc1ccccc1N(CC(=O)OCOC(C)=O)CC(=O)OCOC(C)=O [BAPTA-AM]
Pancreatic acini [3]; BAPTA-AM 20 μM preincubated 30 minutes, CCK 1 nM
  effect on CCK-induced [Ca2+]i: completely eliminated the effect of CCK on [Ca^2+]i
Pancreatic acini [4]; BAPTA-AM 20 μM preincubated 20 minutes
  effect on Yoda1-induced mitochondrial depolarization: protected from Yoda1-induced mitochondrial depolarization
Pancreatic acini [5]; BAPTA-AM preincubated 30 minutes, Yoda1 50 μM
  effect on Yoda1-induced LDH release: protected pancreatic acini from Yoda1-induced LDH release
Piezo1 [2]; BAPTA-AM 20 μM preincubated 30 minutes, Yoda1 50 μM
  effect on Yoda1-induced sustained Ca2+ rise: abolished the sustained Ca^2+ rise

## Cc1cccc(F)c1C(=O)Nc1cnc(-c2cc3c(cc2Cl)OC(F)(F)O3)cn1 [CM4620]
Pancreatic acini [3]; CM4620 preincubated 1 hr, CCK
  effect on CCK-induced sustained [Ca2+]i elevation: blocked the sustained elevation in [Ca^2+]i produced by CCK
Pancreatic acini [3]; CM4620 preincubated 1 hr, either concentration of CCK, residual calcium wave
  completeness of block of CCK-induced [Ca2+]i rise: did not completely block the [Ca^2+]i rise
Piezo1 [2]; CM4620 5 μM preincubated 1 hr, Yoda1 25 μM
  effect on Yoda1-induced [Ca2+]i rise: did not alter the rise in [Ca^2+]i following Yoda1 stimulation

## CN(C)CCCn1cc(C2=C(c3c[nH]c4ccccc34)C(=O)NC2=O)c2ccccc21 [GF109203X]
Piezo1 [2]
  effect of protein kinase A and C blockers on Yoda1-induced sustained calcium elevation: did not significantly affect the Yoda1-induced sustained calcium elevation

## CCCCCCOC(=O)[C@]1(O)C[C@@H]2O[C@@]1(C)n1c3ccccc3c3c4c(c5c6ccccc6n2c5c31)C(=O)NC4 [KT5720]
Piezo1 [2]
  effect of protein kinase A and C blockers on Yoda1-induced sustained calcium elevation: did not significantly affect the Yoda1-induced sustained calcium elevation

## CC(C)NCCN(C(C)C)S(=O)(=O)c1ccc(Cl)cc1Cl [RN1734]
TRPV4; HC067 100 nM, RN1734 30 μM
  effect on GSK101 (50 nM)-induced [Ca2+]i increase: inhibited

## CCCCCCCCCCCC(=O)c1c(O)c(C(=O)CCCCCCCCCCC)c(O)c(C2CC(c3ccc(O)cc3)Oc3cc(O)ccc32)c1O (stereo not drawn) [YM26734]
Piezo1 [1]
  effect on Yoda1-mediated sustained [Ca2+]i elevation, YM26734 and AACOCF3 together: significantly inhibited the Yoda1-mediated sustained elevation in [Ca^2+]i
Piezo1 [2]; Yoda1 25 μM
  effect on Yoda1-induced sustained [Ca2+]i elevation, YM26734 and AACOCF3 together: blocked the Yoda1-induced sustained [Ca^2+]i elevation
Piezo1 [2]; YM26734 10 μM, Yoda1 25 μM
  effect of the secretory PLA2 inhibitor alone on Yoda1-induced sustained [Ca2+]i elevation: substantial and capable of blocking the sustained [Ca^2+]i elevation

## C[C@H](CCC(=O)O)C[C@H](C)C[C@H](C)C(=O)/C=C(\O)[C@H](C)C[C@H](C)C/C=C/[C@@H](C)[C@@H](O)[C@@H](C)[C@@H](O)C[C@@H]1CC[C@@](C)([C@H]2CC[C@@](C)([C@@H](C)O)O2)O1 [ionomycin]
Piezo1 [1]; ionomycin 1 μM, mouse PSCs
  [Ca2+]i response to ionomycin after Yoda1 (25 μM) treatment: All cells responded

## CCK: secretagogue that stimulates pancreatic enzyme secretion by increasing [Ca2+]i
Pancreatic acini [4]; Yoda1 50 μM, CCK 10 nM
  time to mitochondrial depolarization after application: > 10 min
Pancreatic acini [6]; CCK 10 nM
  CCK-mediated trypsin activation, WT vs Piezo1aci-KO acini: similar
Pancreatic acini [6]; Yoda1 50 μM or CCK 10 nM
  trypsin activation (BZiPAR fluorescence): activated trypsin in pancreatic acini over time
Pancreatic acini [6]; Yoda1 50 μM, CCK 10 nM
  time to trypsin activation after application: > 20 min
Pancreatic acini [5]; CCK 1 nM
  cell damage (LDH release) in WT vs Piezo1aci-KO acini: produced comparable cell damage
Pancreatic acini [5]; Yoda1 50 μM + CCK 1 nM, WT acini
  acinar cell death, both Yoda1 and CCK vs individual application: acinar cell death was greater
